Laboratory results taken from ChEMBL document CHEMBL4038348 (J Med Chem, 2017).

Assay: physchem
Settings: octanol/water, pH 7.4
Description: 1-octanol/aqueous buffer solution partition coefficient, log D of the compound at pH 7.4 by UV-HPLC method

SMILES | logD
COCC(NC(=O)N1CC(=O)Nc2cc(OC)cnc21)c1ccc(C(F)(F)F)cc1 (stereo in doubt; 34) | 3.03
CCC(NC(=O)N1CC(=O)Nc2cccnc21)c1ccc(N2CCC2)cc1 (configuration not stated) | 3.13
